Data from ChEMBL document CHEMBL1201862, “PubChem BioAssay data set” (2004).
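Growth conditions: 96-well plates. Treatment: test compound, 48 hours, 5 concentrations. Analysis: linear interpolation between bracketing concentrations; unreached endpoints set to highest concentration. At the GI50, growth is halved.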 Calls of active or inactive are those of the source. Rule as the data show it: active = GI50 up to about 1.1 µM and inactive = higher.

Legend:
Assay in all cases: growth of human tumour cells (NCI), 48 h
M19-MEL = tested on: M19-MEL
KM-20L2 = tested on: KM-20L2
SNB-78 = tested on: SNB-78
RXF 631 = tested on: RXF 631
LXFL 529 = tested on: LXFL 529
HOP-18 = tested on: HOP-18
DMS-114 = tested on: DMS-114
DLD-1 = tested on: DLD-1
DMS-273 = tested on: DMS-273

SMILES | GI50 (M19-MEL) | GI50 (KM-20L2) | GI50 (SNB-78) | GI50 (RXF 631) | GI50 (LXFL 529) | GI50 (HOP-18) | GI50 (DMS-114) | GI50 (DLD-1) | GI50 (DMS-273)
C=CCc1cc2cccc(OC)c2oc1=O | > 100 µM (inactive) | > 100 µM (inactive) | > 100 µM (inactive) | > 100 µM (inactive) | 57 µM (inactive) | 73.6 µM (inactive) | 80.5 µM (inactive) | > 100 µM (inactive) | > 100 µM (inactive)
C=C1C2CCCC1C1(S(C)(=O)=O)CCCCC21O (stereo unspecified) | > 100 µM (inactive) | > 100 µM (inactive) | > 100 µM (inactive) |  | > 100 µM (inactive) | > 100 µM (inactive) | > 100 µM (inactive) | > 100 µM (inactive) | > 100 µM (inactive)
COc1ccc2cc1Oc1ccc(cc1)C[C@H]1c3cc(c(OC)cc3CCN1C)Oc1c(OC)c(OC)cc3c1[C@H](C2)N(C)CC3 [FANCHININ] |  | 3.8 µM (inactive) | 9.44 µM (inactive) |  |  | 9.42 µM (inactive) | 7.36 µM (inactive) | 9.29 µM (inactive) | 6.31 µM (inactive)
COC(=O)C(=Cc1cc(OC)ccc1OC)C(=O)OC | 22 µM (inactive) |  | 34.1 µM (inactive) | 32 µM (inactive) | 16.6 µM (inactive) |  | 20.8 µM (inactive) | 29 µM (inactive) | 32.3 µM (inactive)
O=C1CCC2(c3ccccc3)Nc3ccccc3N12 (stereo unspecified) | > 100 µM (inactive) | > 100 µM (inactive) | > 100 µM (inactive) | > 100 µM (inactive) | > 100 µM (inactive) |  | > 100 µM (inactive) | > 100 µM (inactive) | 
CC(C)c1cccc(C(C)C)c1NC(=O)/C(Cc1nc2ccc(Cl)cc2nc1O)=N\NC(=O)C[N+](C)(C)C | > 100 µM (inactive) | > 100 µM (inactive) |  | > 100 µM (inactive) |  |  | > 100 µM (inactive) | > 100 µM (inactive) | 
COC(=O)/N=C(\NC(=O)OC)Nc1ccc(Oc2ccccc2)cc1NC=O | 0.312 µM (active) | 0.242 µM (active) |  |  | 0.667 µM (active) | > 100 µM (inactive) | 0.253 µM (active) | 0.536 µM (active) | 
C[C@]12Cc3cn[nH]c3C(=O)C1CC[C@@H]1C2CC[C@@]2(C)C1CC[C@@H]2O (stereo partly specified) |  | > 100 µM (inactive) | > 100 µM (inactive) |  | > 100 µM (inactive) | > 100 µM (inactive) | > 100 µM (inactive) |  | > 100 µM (inactive)
COc1ccc(C)cc1-c1ccc(-c2cc(C)ccc2OC)o1 | 54.6 µM (inactive) | > 100 µM (inactive) | > 100 µM (inactive) | > 100 µM (inactive) | > 100 µM (inactive) |  | > 100 µM (inactive) | > 100 µM (inactive) | > 100 µM (inactive)
CN1C[C@@H]2CC(=O)CC[C@@H]2C[C@H]1C#N |  | > 100 µM (inactive) |  | > 100 µM (inactive) | > 100 µM (inactive) |  | > 100 µM (inactive) | > 100 µM (inactive) | 
COc1cc(Br)c(/C=N\c2cccc3ccc(OS(=O)(=O)c4cccc([N+](=O)[O-])c4)cc23)cc1OC | 36.1 µM (inactive) |  | 12 µM (inactive) |  | 14.3 µM (inactive) | > 100 µM (inactive) | 14.7 µM (inactive) | 35.5 µM (inactive) | 
Sc1ncnc2c1ncn2C1CCCO1 (stereo unspecified) |  | > 100 µM (inactive) |  |  | > 100 µM (inactive) | > 100 µM (inactive) | 65.8 µM (inactive) | 89.9 µM (inactive) | 76.2 µM (inactive)
CC1(C)SCc2nc3ncccc3n21 | > 100 µM (inactive) | > 100 µM (inactive) | > 100 µM (inactive) | > 100 µM (inactive) | > 100 µM (inactive) |  | > 100 µM (inactive) | > 100 µM (inactive) | 
CCN(CC)CCNc1ccc2nnn3c4ccc(O)cc4c(=O)c1c23 |  | 4.37 µM (inactive) | 5.89 µM (inactive) |  | 6.58 µM (inactive) | 20.5 µM (inactive) | 7.29 µM (inactive) | 2.09 µM (inactive) | 
CCOC(OCC)C(CC)[Se]c1ccccc1 (stereo unspecified) | 19.3 µM (inactive) | 19.5 µM (inactive) | 64.3 µM (inactive) | 8.49 µM (inactive) | 35.6 µM (inactive) | 65.2 µM (inactive) | 2.82 µM (inactive) | > 100 µM (inactive) | 14.1 µM (inactive)
CCN(CC)Cc1cc(Nc2c3ccccc3nc3c4ccccc4n(C)c23)ccc1O | 7.85 µM (inactive) | 5.45 µM (inactive) | 18.6 µM (inactive) | 3.18 µM (inactive) | 4.8 µM (inactive) | 14.1 µM (inactive) | 6.37 µM (inactive) | 6.76 µM (inactive) | 5.64 µM (inactive)

SMILES | GI50 (M19-MEL) | GI50 (KM-20L2) | GI50 (SNB-78) | GI50 (RXF 631) | GI50 (LXFL 529) | GI50 (HOP-18) | GI50 (DMS-114) | GI50 (DLD-1) | GI50 (DMS-273)
NC(=O)COC(=O)c1c(Cl)nc2sccn12 | > 84.3 µM (inactive) | > 100 µM (inactive) | > 100 µM (inactive) | > 100 µM (inactive) | > 65.5 µM (inactive) | > 100 µM (inactive) | > 52.1 µM (inactive) | > 100 µM (inactive) | 81.7 µM (inactive)
COC(=O)[C@@]12C=CC(=O)[C@H]3C[C@@H](C(C(C)C)C1)[C@]32OC (stereo partly specified) | > 100 µM (inactive) | > 100 µM (inactive) | > 100 µM (inactive) | > 100 µM (inactive) | > 100 µM (inactive) | > 100 µM (inactive) | > 100 µM (inactive) | > 100 µM (inactive) | > 100 µM (inactive)
COc1ccc(OC)c2c(C(=O)O)c(C(C)c3ccccc3)ccc12 (stereo unspecified) | > 100 µM (inactive) | > 100 µM (inactive) |  | > 100 µM (inactive) | > 100 µM (inactive) | > 100 µM (inactive) |  | > 100 µM (inactive) | > 100 µM (inactive)
CC1CC2C3CCC4=CC(=O)C=CC4(C)C3(F)C(O)CC2(C)C1(O)C(=O)CO.Cc1cc(NS(=O)(=O)c2ccc(/N=N\c3cc(/N=N/c4ccc(S(=O)(=O)Nc5cc(C)nc(C)n5)cc4)c(OC(=O)C(Cl)Cl)c4cccc(NC(=O)C(Cl)Cl)c34)cc2)nc(C)n1 | 30.8 µM (inactive) | 25.6 µM (inactive) | 33.1 µM (inactive) |  | 10 µM (inactive) | 18.8 µM (inactive) | 27.5 µM (inactive) | 18 µM (inactive) | 21.5 µM (inactive)
CCCCCCCCCCCCCCCCCCOCC1(COP(=O)([O-])OCC[N+](C)(C)C)CCCO1 (stereo unspecified) | 2.99 µM (inactive) | 3.26 µM (inactive) | 8.17 µM (inactive) |  | 4.92 µM (inactive) | 2.82 µM (inactive) | 5.16 µM (inactive) | 3.65 µM (inactive) | 1.75 µM (inactive)
Cn1c(=O)nc2n(-c3ccc(Cl)cc3)c3cc(Cl)ccc3nc-2c1=O | 1.75 µM (inactive) | 3.44 µM (inactive) | > 37.9 µM (inactive) | 1.97 µM (inactive) | 1.7 µM (inactive) | 14.9 µM (inactive) | 1.78 µM (inactive) | 1.79 µM (inactive) | 3.56 µM (inactive)
CCOC(=O)C1=C(NC(C)(C)C)OCC1=O |  | > 100 µM (inactive) | > 100 µM (inactive) | > 100 µM (inactive) | > 100 µM (inactive) |  |  | > 100 µM (inactive) | 
CC(N)C(=O)OCN1C(=O)C2C3C=CC(C2C1=O)C1C2C(=O)N(COC(=O)C(C)N)C(=O)C2C31 (stereo unspecified) | 23.6 µM (inactive) | 28.2 µM (inactive) | 57 µM (inactive) |  | 26.4 µM (inactive) | > 100 µM (inactive) | 17 µM (inactive) | 24.5 µM (inactive) | 18.5 µM (inactive)
CC(C)(Oc1ccc(C(=O)c2ccc(Cl)cc2)cc1Cl)C(=O)N1CCN(c2ccccc2)CC1 | > 100 µM (inactive) | > 100 µM (inactive) | > 100 µM (inactive) |  | > 100 µM (inactive) | > 100 µM (inactive) | 45.7 µM (inactive) | > 100 µM (inactive) | 55.7 µM (inactive)
Cc1cc2c(=O)cc(-c3ccc(C(=O)O)cc3)oc2c(C(=O)O)c1C | > 100 µM (inactive) | > 100 µM (inactive) | > 100 µM (inactive) | > 100 µM (inactive) | > 100 µM (inactive) | > 100 µM (inactive) | > 100 µM (inactive) | > 100 µM (inactive) | > 100 µM (inactive)
OCCCCCCOc1ccc(-c2cc(-c3ccccn3)nc(-c3ccccn3)c2)cc1 | 0.253 µM (active) | 0.0897 µM (active) | 0.524 µM (active) |  | 0.242 µM (active) | 0.182 µM (active) | 0.207 µM (active) | 0.169 µM (active) | 0.211 µM (active)
O=c1[nH]ccc(CNC23CC4CC(CC(C4)C2)C3)c1O | > 100 µM (inactive) | > 100 µM (inactive) | > 100 µM (inactive) |  | > 100 µM (inactive) | > 100 µM (inactive) |  | > 100 µM (inactive) | > 100 µM (inactive)
CCc1nc(N)nc(N)c1-c1ccc(Cl)c(N=[N+]=[N-])c1 | 11.9 µM (inactive) | 12.1 µM (inactive) | 18.2 µM (inactive) |  | 6.24 µM (inactive) | 0.916 µM (active) |  | 5.47 µM (inactive) | 
C[C@]12CCC[C@H](O)[C@H]1C[C@H](CO)CC2 | > 100 µM (inactive) | > 100 µM (inactive) |  | > 100 µM (inactive) | > 100 µM (inactive) | > 100 µM (inactive) |  | > 100 µM (inactive) | > 100 µM (inactive)
COC1C(N)C(OC2C(Oc3cccc4c(O)c5c(=O)oc6ccc(C)c7c(=O)oc(c34)c5c67)OC(C)C(O)C2(C)O)OC(C)C1O (stereo unspecified) | 0.0166 µM (active) | 0.0568 µM (active) | 0.0394 µM (active) | 0.0351 µM (active) | < 0.0121 µM (active) | 0.152 µM (active) | 0.0229 µM (active) | 0.0206 µM (active) | < 0.01 µM (active)
COc1ccc(Br)c(N/N=C2\CCCNC2=O)c1 | > 100 µM (inactive) | > 100 µM (inactive) | > 100 µM (inactive) | > 100 µM (inactive) | > 100 µM (inactive) | 39.6 µM (inactive) | 90.8 µM (inactive) | > 100 µM (inactive) | > 100 µM (inactive)
